Test in all cases: Other kinases, single-concentration inhibition (Table 3)
Conditions in all cases: 1 μM

In one assay the test system is AMPK(r). In kind it is biochemical, rat. The procedure: (§1) The Aurora and other kinase assays described here were performed on two Caliper Life Sciences systems, the LC3000 and the Desktop Profiler. These provide data on enzyme activity via measurement of the relative amounts of phosphorylated or unphosphorylated fluorescently labelled substrate peptide at the end of an enzymatic reaction. These different states of peptide are resolved by applying a potential difference across the sample. The presence of a charged phosphate group on the product (as opposed to the substrate) causes a different peptide mobility between the two peptides. This is visualized by excitation of a fluorescent label on the substrate and product peptides and represented as peaks within the analysis software.
(§2) The Desktop Profiler utilizes the same principal as the LC 3000 for calculating percentage conversion of a substrate to product. Caliper Life Sciences provided proprietary flash frozen pre-made 384 well plates containing selected kinases. Each column in the 384 well plate contained a particular selected kinase. A second plate, the ‘substrate plate’ contained a mix of fluorescently labeled peptide substrate and ATP. These were arranged in columns so that transfer for substrate plate to enzyme plate provided the correct enzyme with the correct substrate/ATP concentration.
(§3) Compounds were added to a thawed enzyme plate in the desired format, in single concentrations. Reactions were initiated by transfer of the ubstrate/ATP mix from the substrate plate. The enzyme plate was incubated for 90 mins at 25 °C. The reaction was stopped by addition of […] of Stop Buffer (100 mM HEPES pH 7.5, 0.015% Brij-35, 10 mM EDTA (Sigma, E7889)).
(§4) Plates were read in a manner identical to that of the LC3000, and the ratio between substrate and product peaks provided the activity of the enzyme in that well. This was best represented by a plate heat map which colors each well by percent inhibition as compared to positive and negative controls (no inhibitors and no ATP respectively).

Another assay addresses T1, Met(h) (Homo sapiens, UniProt P08581).
T1 construct: purchased Caliper Life Sciences
In kind it is biochemical. The procedure:
as §1, §2, §3, §4

For the next assay, the target named is T2, Flt3(h) (Homo sapiens, UniProt P36888).
T2 construct: purchased Caliper Life Sciences
T2 sequence (P36888 27-993): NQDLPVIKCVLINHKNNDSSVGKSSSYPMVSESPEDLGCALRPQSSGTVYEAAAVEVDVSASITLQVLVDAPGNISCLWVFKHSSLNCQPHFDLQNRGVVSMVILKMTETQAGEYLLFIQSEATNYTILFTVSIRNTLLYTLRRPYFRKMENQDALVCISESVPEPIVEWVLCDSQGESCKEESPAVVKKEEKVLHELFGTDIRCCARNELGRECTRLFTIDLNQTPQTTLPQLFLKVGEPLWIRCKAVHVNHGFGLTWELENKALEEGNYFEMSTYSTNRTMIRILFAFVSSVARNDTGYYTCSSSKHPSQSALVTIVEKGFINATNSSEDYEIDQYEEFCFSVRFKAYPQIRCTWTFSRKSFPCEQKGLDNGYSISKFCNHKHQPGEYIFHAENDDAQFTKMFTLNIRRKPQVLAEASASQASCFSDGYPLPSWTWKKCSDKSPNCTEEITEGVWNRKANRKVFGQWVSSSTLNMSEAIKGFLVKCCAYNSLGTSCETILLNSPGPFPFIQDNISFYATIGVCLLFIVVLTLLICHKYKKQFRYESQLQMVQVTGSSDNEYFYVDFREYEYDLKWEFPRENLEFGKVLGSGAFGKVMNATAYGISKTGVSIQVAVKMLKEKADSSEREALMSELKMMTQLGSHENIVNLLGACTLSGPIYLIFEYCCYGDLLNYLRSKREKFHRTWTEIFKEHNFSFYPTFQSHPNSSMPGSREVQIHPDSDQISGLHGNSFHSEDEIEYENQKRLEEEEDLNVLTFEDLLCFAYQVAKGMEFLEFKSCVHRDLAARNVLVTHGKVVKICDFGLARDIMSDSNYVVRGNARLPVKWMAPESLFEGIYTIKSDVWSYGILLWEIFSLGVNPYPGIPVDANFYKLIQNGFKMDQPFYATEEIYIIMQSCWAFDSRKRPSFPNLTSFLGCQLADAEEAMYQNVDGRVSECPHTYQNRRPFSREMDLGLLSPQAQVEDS
The class given is biochemical. The procedure:
as §1, §2, §3, §4

The target in a further assay is T3, cKit(D816V)(h) (Homo sapiens, UniProt P10721, D816V).
T3 construct: purchased Caliper Life Sciences
T3 sequence (P10721 26-976 D816V): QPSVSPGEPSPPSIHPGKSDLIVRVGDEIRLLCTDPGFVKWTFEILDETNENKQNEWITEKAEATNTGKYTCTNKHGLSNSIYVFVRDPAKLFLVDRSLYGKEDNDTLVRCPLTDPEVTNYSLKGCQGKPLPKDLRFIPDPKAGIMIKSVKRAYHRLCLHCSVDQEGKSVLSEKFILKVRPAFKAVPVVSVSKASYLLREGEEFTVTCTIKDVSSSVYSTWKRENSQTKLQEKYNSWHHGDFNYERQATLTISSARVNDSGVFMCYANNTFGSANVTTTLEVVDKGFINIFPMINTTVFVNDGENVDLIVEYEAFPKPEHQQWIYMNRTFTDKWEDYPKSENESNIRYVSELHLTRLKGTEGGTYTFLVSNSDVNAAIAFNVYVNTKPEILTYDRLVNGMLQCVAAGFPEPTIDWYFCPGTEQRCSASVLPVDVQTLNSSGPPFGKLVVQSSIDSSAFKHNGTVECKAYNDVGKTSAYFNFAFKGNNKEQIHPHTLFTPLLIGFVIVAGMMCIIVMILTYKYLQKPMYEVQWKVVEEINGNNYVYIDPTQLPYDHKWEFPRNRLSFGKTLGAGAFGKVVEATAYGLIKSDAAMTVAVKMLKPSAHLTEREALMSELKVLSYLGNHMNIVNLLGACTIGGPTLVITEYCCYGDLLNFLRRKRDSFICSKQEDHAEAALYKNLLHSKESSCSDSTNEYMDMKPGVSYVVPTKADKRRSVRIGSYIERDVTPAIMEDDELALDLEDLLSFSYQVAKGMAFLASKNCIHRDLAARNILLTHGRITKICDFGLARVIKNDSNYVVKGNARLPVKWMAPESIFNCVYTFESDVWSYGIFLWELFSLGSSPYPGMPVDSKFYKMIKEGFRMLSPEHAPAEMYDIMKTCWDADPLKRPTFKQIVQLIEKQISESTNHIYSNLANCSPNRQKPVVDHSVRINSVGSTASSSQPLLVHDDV
The class given is biochemical. As to the method: as §1, §2, §3, §4

For another assay, the target named is T4, Abl(T315I)(h) (Homo sapiens, UniProt P00519, T315I).
T4 construct: purchased Caliper Life Sciences
The class given is biochemical. As to the method: as §1, §2, §3, §4

Another assay addresses T5, Ret(h) (Homo sapiens, UniProt P07949).
T5 construct: purchased Caliper Life Sciences
In kind it is biochemical. As to the method:
as §1, §2, §3, §4

Another assay has as its target T6, Tie2(R849W)(h) (Homo sapiens, UniProt Q02763, R849W).
T6 construct: purchased Caliper Life Sciences
The class given is biochemical. As to the method:
as §1, §2, §3, §4

The target in the next assay is T7, IRAK4(h) (Homo sapiens, UniProt Q9NWZ3).
T7 construct: purchased Caliper Life Sciences
T7 sequence (Q9NWZ3 1-460): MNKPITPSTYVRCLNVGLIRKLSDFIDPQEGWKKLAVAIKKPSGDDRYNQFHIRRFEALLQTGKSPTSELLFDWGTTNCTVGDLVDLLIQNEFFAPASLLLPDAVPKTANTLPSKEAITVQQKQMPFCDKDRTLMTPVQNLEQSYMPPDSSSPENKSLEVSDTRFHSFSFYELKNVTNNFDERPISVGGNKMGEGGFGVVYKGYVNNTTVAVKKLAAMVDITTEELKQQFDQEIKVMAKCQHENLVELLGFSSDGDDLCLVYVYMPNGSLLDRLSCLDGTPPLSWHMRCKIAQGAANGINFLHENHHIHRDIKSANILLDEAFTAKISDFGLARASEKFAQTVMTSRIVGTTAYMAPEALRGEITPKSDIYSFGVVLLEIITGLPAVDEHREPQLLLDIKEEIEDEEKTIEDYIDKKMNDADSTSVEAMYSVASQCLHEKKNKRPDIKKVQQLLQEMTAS
The class given is biochemical. The procedure:
as §1, §2, §3, §4

Another assay concerns the target T8, FGFR4(h) (Homo sapiens, UniProt P22455).
T8 construct: purchased Caliper Life Sciences
In kind it is biochemical. The procedure:
as §1, §2, §3, §4

SMILES strings stand for the structures.

T8 sequence (P22455 22-802): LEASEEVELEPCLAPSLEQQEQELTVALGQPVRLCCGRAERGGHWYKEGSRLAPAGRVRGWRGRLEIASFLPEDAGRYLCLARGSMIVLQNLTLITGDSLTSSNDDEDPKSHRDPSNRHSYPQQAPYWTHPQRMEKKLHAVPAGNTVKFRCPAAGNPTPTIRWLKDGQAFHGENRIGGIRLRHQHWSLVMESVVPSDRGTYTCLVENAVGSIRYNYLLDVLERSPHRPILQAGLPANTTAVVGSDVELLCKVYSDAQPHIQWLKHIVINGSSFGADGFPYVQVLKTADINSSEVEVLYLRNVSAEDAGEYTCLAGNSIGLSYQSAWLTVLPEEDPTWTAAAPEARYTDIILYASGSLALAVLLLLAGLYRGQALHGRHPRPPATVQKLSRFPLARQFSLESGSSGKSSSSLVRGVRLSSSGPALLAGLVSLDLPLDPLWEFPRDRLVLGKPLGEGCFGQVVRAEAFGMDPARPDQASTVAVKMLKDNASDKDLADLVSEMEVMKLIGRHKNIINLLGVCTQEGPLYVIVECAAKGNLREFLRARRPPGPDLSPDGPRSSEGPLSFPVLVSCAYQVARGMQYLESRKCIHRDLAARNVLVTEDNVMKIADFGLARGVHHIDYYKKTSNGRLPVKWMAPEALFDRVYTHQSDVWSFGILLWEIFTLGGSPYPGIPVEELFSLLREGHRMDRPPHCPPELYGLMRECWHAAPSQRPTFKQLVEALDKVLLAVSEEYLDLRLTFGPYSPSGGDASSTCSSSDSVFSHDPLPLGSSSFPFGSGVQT
T1 sequence (P08581 25-1390): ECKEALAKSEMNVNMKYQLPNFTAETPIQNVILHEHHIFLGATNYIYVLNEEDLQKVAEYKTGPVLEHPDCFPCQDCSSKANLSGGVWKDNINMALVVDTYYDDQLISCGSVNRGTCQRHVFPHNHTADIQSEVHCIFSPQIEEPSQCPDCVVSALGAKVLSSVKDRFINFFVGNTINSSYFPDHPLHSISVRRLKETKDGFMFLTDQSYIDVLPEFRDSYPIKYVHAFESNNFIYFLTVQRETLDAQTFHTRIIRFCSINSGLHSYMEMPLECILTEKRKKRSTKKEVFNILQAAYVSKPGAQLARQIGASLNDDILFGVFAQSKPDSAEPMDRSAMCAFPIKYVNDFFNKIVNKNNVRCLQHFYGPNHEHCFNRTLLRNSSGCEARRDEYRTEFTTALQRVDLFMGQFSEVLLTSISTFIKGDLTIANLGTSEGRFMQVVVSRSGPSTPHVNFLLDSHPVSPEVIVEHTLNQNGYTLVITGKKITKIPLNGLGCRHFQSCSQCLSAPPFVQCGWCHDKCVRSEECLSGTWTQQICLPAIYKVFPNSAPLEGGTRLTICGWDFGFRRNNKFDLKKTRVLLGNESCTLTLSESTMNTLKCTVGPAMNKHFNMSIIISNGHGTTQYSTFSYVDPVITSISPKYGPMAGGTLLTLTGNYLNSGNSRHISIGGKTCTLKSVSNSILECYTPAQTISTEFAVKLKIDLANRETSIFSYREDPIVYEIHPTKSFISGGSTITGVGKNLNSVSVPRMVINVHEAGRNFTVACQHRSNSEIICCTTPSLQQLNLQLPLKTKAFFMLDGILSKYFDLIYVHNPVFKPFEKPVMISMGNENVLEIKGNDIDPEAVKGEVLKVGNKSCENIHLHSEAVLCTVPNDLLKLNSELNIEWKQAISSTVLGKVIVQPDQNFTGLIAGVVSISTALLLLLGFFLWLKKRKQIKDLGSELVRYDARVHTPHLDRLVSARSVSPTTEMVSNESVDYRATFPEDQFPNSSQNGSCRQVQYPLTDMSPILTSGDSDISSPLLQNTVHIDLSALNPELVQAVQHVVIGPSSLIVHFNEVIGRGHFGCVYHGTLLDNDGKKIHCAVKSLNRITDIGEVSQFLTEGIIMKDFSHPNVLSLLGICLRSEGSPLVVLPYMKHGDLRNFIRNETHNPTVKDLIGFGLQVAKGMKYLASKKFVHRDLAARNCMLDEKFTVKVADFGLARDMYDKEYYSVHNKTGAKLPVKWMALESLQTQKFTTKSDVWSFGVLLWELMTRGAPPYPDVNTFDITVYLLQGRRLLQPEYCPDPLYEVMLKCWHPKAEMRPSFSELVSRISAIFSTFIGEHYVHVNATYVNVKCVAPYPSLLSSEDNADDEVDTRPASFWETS
T6 sequence (Q02763 23-1124 R849W): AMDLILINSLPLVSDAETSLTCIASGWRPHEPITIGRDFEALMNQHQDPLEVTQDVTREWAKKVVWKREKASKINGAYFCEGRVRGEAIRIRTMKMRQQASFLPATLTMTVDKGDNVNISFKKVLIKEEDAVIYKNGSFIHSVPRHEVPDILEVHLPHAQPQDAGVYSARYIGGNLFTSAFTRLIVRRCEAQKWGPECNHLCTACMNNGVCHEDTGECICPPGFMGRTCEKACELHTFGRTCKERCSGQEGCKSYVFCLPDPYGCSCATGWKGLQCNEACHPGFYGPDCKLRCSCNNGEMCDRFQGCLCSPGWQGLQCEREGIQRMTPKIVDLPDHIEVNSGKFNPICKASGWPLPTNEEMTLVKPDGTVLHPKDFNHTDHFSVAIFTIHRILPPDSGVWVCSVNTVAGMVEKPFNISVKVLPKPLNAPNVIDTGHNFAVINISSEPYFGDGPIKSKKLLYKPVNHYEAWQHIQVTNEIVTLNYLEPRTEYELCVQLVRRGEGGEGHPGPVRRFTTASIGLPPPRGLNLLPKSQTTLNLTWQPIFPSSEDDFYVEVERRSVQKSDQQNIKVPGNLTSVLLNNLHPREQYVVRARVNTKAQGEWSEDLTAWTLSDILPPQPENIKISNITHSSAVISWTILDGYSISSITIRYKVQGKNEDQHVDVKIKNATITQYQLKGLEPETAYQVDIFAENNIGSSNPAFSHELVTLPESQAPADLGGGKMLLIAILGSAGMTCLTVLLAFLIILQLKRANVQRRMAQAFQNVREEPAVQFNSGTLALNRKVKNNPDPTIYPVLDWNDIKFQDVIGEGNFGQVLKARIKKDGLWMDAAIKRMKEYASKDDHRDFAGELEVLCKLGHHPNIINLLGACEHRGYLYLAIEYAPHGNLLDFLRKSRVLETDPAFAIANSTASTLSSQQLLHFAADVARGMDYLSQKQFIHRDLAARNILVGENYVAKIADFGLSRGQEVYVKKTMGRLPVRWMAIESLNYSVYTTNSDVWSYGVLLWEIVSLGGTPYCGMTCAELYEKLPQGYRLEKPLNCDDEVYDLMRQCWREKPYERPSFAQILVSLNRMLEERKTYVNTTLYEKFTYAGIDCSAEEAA

Take `NC(=O)[C@H]1[C@H]2C[C@H]3[C@H]1Nc1nc(ncc1F)Nc1cccc(c1)OCCS[C@@H]3C2` [Example 20]: the “% inhibition AMPK(r)” value with AMPK(r) is on record as 81%. For the same compound, the “% inhibition Met(h)” value on Met(h) was determined as 60%. At Flt3(h), the “% inhibition Flt3(h)” value came out at 16%. Moreover, at cKit(D816V)(h), the “% inhibition cKit(D816V)(h)” value was 112%. The “% inhibition Abl(T315I)(h)” value at Abl(T315I)(h) is listed as 34%. Moreover, the “% inhibition Ret(h)” value at Ret(h) is reported as 11%. Further, the “% inhibition Tie2(R849W)(h)” value at Tie2(R849W)(h) was determined as 14%. Moreover, the “% inhibition IRAK4(h)” value on IRAK4(h) is reported as 12%. Besides, the “% inhibition FGFR4(h)” value at FGFR4(h) is reported as 102%.

Source of the values: patent US8815872B2, “Macrocyclics pyrimidines as aurora kinase inhibitors” (Merck Patent GmbH, priority 2008, dated 2014).
